Source: ChEMBL document CHEMBL2401681 (Bioorg Med Chem Lett, 2013)

Tests used:
Estrogen receptor beta [1] = target: T1, Estrogen receptor beta (Homo sapiens, UniProt Q92731); assay: Agonist activity at human Gal4-ERbeta by reporter gene assay
Estrogen receptor [2] = target: T2, Estrogen receptor (Homo sapiens, UniProt P03372); assay: Agonist activity at human Gal4-ERalpha by reporter gene assay
T2 sequence (P03372 whole entry): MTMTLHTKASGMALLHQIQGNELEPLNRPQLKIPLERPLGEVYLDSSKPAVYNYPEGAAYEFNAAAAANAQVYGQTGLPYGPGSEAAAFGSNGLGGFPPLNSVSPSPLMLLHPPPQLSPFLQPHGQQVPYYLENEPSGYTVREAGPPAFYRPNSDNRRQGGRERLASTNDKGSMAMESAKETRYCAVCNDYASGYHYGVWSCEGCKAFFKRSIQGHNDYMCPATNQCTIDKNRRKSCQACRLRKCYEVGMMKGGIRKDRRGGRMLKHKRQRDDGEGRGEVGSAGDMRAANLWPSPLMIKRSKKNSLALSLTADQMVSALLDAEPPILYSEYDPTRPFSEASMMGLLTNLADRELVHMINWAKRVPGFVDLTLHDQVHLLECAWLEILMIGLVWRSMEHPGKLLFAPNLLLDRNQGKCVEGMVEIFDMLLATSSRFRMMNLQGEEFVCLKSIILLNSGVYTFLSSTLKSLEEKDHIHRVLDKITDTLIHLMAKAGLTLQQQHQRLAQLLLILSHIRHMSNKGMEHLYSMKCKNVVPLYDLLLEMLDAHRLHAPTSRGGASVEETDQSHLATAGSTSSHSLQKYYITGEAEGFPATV

Estrogen receptor beta [3] = target: T1, Estrogen receptor beta; details: at 3 µM
Description: Antagonist activity at human Gal4-ERbeta assessed as inhibition of 17beta-estradiol-induced effect at 3 uM by reporter gene assay

[4] = target: T3, Estrogen receptor (Homo sapiens) (UniProt P03372); details: at 3 µM
T3 sequence (whole entry): T2 sequence (P03372 whole entry)
Description: Antagonist activity at human Gal4-ERalpha assessed as inhibition of 17beta-estradiol-induced effect at 3 uM by reporter gene assay

Estrogen receptor beta [5] = target: T1, Estrogen receptor beta; assay: Antagonist activity at human Gal4-ERbeta assessed as inhibition of 17beta-estradiol-induced effect by reporter gene assay
Estrogen receptor [6] = target: T2, Estrogen receptor; assay: Antagonist activity at human Gal4-ERalpha assessed as inhibition of 17beta-estradiol-induced effect by reporter gene assay
Androgen receptor = target: T4, Androgen receptor (Homo sapiens, UniProt P10275); assay: Antagonist activity at human pSG5-AR assessed as inhibition of dihydrotestosterone-induced effect by reporter gene assay
T4 sequence (P10275 whole entry): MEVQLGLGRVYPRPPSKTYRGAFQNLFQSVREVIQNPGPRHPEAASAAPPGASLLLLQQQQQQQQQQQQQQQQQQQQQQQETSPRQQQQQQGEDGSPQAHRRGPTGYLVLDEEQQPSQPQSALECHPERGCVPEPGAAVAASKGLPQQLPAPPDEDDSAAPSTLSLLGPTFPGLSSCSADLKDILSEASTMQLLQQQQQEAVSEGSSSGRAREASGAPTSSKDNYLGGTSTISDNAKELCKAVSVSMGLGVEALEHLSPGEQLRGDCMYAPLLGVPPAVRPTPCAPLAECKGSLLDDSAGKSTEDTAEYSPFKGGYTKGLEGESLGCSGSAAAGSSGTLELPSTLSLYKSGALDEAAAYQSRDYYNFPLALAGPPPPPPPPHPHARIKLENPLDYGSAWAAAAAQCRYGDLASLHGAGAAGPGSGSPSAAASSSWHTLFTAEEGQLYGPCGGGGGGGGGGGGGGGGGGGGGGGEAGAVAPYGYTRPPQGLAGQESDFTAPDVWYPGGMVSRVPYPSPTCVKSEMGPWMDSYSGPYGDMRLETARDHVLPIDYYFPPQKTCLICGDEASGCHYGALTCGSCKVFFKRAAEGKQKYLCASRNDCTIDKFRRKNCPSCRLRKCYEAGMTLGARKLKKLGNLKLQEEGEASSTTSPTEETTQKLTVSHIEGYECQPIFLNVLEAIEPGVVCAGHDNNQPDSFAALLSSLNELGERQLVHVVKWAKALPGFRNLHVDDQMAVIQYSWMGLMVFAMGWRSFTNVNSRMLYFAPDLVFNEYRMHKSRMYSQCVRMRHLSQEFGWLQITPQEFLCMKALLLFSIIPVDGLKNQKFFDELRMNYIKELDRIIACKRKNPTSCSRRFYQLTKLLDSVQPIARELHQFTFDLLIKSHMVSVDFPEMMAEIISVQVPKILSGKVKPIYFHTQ

[7] = target: T3, Estrogen receptor (Homo sapiens); assay: Agonist activity at human Gal4-ERalpha at 10 uM by reporter gene assay relative to 17beta-estradiol

T1 sequence (Q92731 whole entry, the tested form may be a part): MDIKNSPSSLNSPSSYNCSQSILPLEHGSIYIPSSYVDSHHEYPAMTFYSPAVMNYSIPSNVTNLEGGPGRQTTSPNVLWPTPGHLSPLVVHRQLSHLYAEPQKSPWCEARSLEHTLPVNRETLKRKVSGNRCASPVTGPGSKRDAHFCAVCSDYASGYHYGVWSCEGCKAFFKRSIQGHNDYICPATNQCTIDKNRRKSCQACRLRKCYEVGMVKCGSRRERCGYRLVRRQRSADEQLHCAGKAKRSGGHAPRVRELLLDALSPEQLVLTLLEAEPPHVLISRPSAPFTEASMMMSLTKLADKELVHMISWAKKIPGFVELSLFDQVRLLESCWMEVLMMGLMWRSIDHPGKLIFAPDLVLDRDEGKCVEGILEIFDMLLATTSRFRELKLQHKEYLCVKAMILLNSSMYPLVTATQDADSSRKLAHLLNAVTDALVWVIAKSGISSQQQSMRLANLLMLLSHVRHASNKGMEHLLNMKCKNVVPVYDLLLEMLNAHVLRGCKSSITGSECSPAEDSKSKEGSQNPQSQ

Row | Structure (SMILES) | EC50 (Estrogen receptor beta [1]) | EC50 (Estrogen receptor [2]) | IC50 (Estrogen receptor beta [5]; read-out: IC50) [µM] | IC50 (Estrogen receptor [6]) [µM] | other results
1 | CCCCC(CCCC)(c1ccc(O)c(CCC)c1)c1ccc(O)c(CCC)c1 | Not Active | Not Active | – | – | –
2 | Oc1ccc(Cc2ccc(O)cc2)cc1 | – | – | – | – | EC50 (Estrogen receptor beta [1]; read-out: EC50): 1.9 µM; EC50 (Estrogen receptor [2]; read-out: EC50): 0.91 µM; inhibition (Estrogen receptor beta [3]): 24%; inhibition [4]: 35%
3 | Cc1cc(C2(c3ccc(O)c(C)c3)CCCC2)ccc1O | Not Active | Not Active | 0.77 | 0.084 | –
4 | CCc1cc(C(CC)(CC)c2ccc(O)c(CC)c2)ccc1O | Not Active | Not Active | 1.3 | 0.23 | –
5 | CCC(CC)(c1cc(C)c(O)c(C)c1)c1cc(C)c(O)c(C)c1 | Not Active | Not Active | 0.3 | 0.074 | –
6 | CCCCC(CCCC)(c1ccc(O)c(CC)c1)c1ccc(O)c(CC)c1 | Not Active | Not Active | 4.5 | 2.9 | –
7 | CCCc1cc(C(CC)(CC)c2ccc(O)c(CCC)c2)ccc1O | Not Active | Not Active | – | – | –
8 | CCCc1cc(C(CCC)(CCC)c2ccc(O)c(CCC)c2)ccc1O | Not Active | Not Active | – | – | –
9 | CC(C)(c1ccc(O)cc1)c1ccc(O)cc1 [BISPHENOL A] | – | – | – | – | IC50 (Androgen receptor): 5.9 µM; Activity [7]: 33%; inhibition (Estrogen receptor beta [3]): 25%; inhibition [4]: 38%
10 | Cc1cc(C2(c3ccc(O)c(C)c3)CCCCC2)ccc1O | Not Active | Not Active | 0.79 | 0.23 | –
11 | CCC(CC)(c1ccc(O)cc1)c1ccc(O)c(C)c1 | – | Not Active | 0.38 | 0.11 | –
12 | Oc1ccc(C2(c3ccc(O)cc3)CCCC2)cc1 | Not Active | Not Active | 0.27 | 0.17 | –
13 | CCC(CC)(c1ccc(O)c(C)c1)c1ccc(O)c(C)c1 | – | Not Active | 0.26 | 0.025 | IC50 (Androgen receptor): 4.5 µM
14 | CCCCC(CCCC)(c1ccc(O)cc1)c1ccc(O)cc1 | Not Active | Not Active | 0.18 | 0.079 | –
15 | CCC(CC)(c1ccc(O)cc1)c1ccc(O)cc1 | – | Not Active | 0.093 | 0.086 | –
16 | Cc1cc(C(C)(C)c2ccc(O)cc2)ccc1O | – | – | – | – | Activity [7]: 26%; inhibition (Estrogen receptor beta [3]): 26%; inhibition [4]: 48%
17 | CCCCC(CCCC)(c1ccc(O)c(C)c1)c1ccc(O)c(C)c1 | Not Active | Not Active | 0.15 | 0.014 | –
18 | Cc1cc(Cc2ccc(O)c(C)c2)ccc1O | – | – | – | – | IC50 (Estrogen receptor beta [5]): Not Active; EC50 (Estrogen receptor beta [1]; read-out: EC50): 5.5 µM; Activity [7]: 23%; inhibition [4]: 26%
19 | Oc1ccc(C2(c3ccc(O)cc3)CCCCC2)cc1 | Not Active | Not Active | 0.56 | 0.52 | –
20 | CCCC[Si](CCCC)(c1ccc(O)c(C)c1)c1ccc(O)c(C)c1 | Not Active | Not Active | – | – | IC50 (Androgen receptor): 8.2 µM; IC50 (Estrogen receptor beta [5]): Not Active
21 | CCCC(CCC)(c1ccc(O)c(CC)c1)c1ccc(O)c(CC)c1 | Not Active | Not Active | 2.6 | 0.49 | –
22 | Cc1cc(C(C)(C)c2ccc(O)c(C)c2)ccc1O | – | – | – | – | Activity [7]: 31%
23 | CCCC(CCC)(c1ccc(O)cc1)c1ccc(O)cc1 | – | Not Active | 2.2 | 0.099 | –
24 | CCC(CC)(c1ccc(N)c(C)c1)c1ccc(O)c(C)c1 | Not Active | Not Active | 0.043 | 0.098 | IC50 (Androgen receptor): 5.4 µM
25 | CC[Si](CC)(c1ccc(O)c(C)c1)c1ccc(O)c(C)c1 | Not Active | Not Active | 0.8 | 0.072 | IC50 (Androgen receptor): 1.9 µM
26 | CCCC(CCC)(c1ccc(O)c(C)c1)c1ccc(O)c(C)c1 | Not Active | Not Active | 0.14 | 0.0049 | IC50 (Androgen receptor): 25 µM
